# According to patent US20230218774A1, “DRUG ANTIBODY CONJUGATES” (PHARMA MAR, S.A., priority 2019, published 2023):
# Several values for one entry are separate records, joined by “and”; a condition that tells them apart may be missing. Identical values can stand only once.
# Assays:
# Format in all cases: cell-based
# [1] = tested on: MCF-7 (breast cancer, HER2−); experiment: SRB colorimetric cytotoxicity assay, MCF-7; settings: Homo sapiens, MCF7, 72 h
# From the text: (§1) The aim of the assay was to evaluate the in vitro cytostatic (ability to delay or arrest tumor cell growth) or cytotoxic (ability to kill tumor cells) activity of the samples being tested.
# (§2) The following human tumor cell lines were obtained from the American Type Culture Collection (ATCC): SK-BR-3 (ATCC HB-30), HCC-1954 (ATCC CRL-2338) (both being breast cancer, HER2+), MDA-MB-231 (ATCC HTB-26), MCF-7 (ATCC HTB-22) (both being breast cancer, HER2−).
# (§3) For SK-BR-3, HCC-1954, MDA-MB-231 and MCF-7 cells, a colorimetric assay using Sulforhodamine B (SRB) was adapted for quantitative measurement of cell growth and cytotoxicity, as described by V. Vichai and K. Kirtikara. In “Sulforhodamine B colorimetric assay for cytotoxicity screening”, Nature Protocols, 2006, 1: 1112-1116. Briefly, cells were seeded in 96-well microtiter plates and allowed to stand for 24 hours in drug-free medium before treatment with vehicle alone or with the tested substances for 72 hours. For quantification, cells were washed twice with phosphate buffered saline (PBS), fixed for 15 min in 1% glutaraldehyde solution, rinsed twice with PBS, stained in 0.4% (w/v) SRB with 1% (v/v) acetic acid solution for 30 min, rinsed several times with 1% acetic acid solution and air-dried.
# (§4) Cell survival was expressed in all cases as percentage of control, untreated cell survival. […]
# [2] = tested on: MDA-MB-231 (breast cancer, HER2−); experiment: SRB colorimetric cytotoxicity assay, MDA-MB-231; settings: Homo sapiens, MDA-MB-231, 72 h
# From the text: as §1, §2, §3, §4
# [3] = tested on: SK-BR-3 (breast cancer, HER2+); experiment: SRB colorimetric cytotoxicity assay, SK-BR-3; settings: Homo sapiens, SK-BR-3, 72 h
# From the text: as §1, §2, §3, §4
# [4] = tested on: HCC-1954 (breast cancer, HER2+); experiment: SRB colorimetric cytotoxicity assay, HCC-1954; settings: Homo sapiens, HCC1954, 72 h
# From the text: as §1, §2, §3, §4
smiles,measurement,setting,value
C=C1C[C@](OC)([C@H](O)C(=O)N[C@@H](OC)[C@@H]2C[C@@H](O)C(C)(C)[C@@H](C[C@@H](COC(=O)NCCCNC(=O)CCCCCN3C(=O)C=CC3=O)OC)O2)O[C@H](C)[C@@H]1C (racemic) [DL-2],IC50,[1],0.0759 µg/mL and 97 nM
same,IC50,[2],0.0652 µg/mL and 83.3 nM
same,IC50,[3],0.108 µg/mL and 138 nM
same,IC50,[4],0.076 µg/mL and 97.1 nM
